Measurements taken from patent US9827235B2, “Pharmaceutical compositions comprising antibacterial agents” (WOCKHARDT LIMITED, priority 2013, dated 2017).
Read-outs that look alike come from different tables or passages of the source.

What was measured:
Assay type in all cases: cell-based
E. coli M 44 = assay: MIC on Muller Hinton Agar (CLSI); conditions: for MIC: enzymes TEM
Method: (§1) The antibacterial activity of combinations according to the invention was investigated against various bacterial strains. In a typical study, minimum inhibitory concentrations (MIC) were determined using Muller Hinton Agar (MHA) (BD, USA) according to Clinical and Laboratory Standards Institute (CLSI) recommendations, (Clinical and Laboratory Standards Institute (CLSI), Performance Standards for Antimicrobial Susceptibility Testing, 20th Informational Supplement, M 100-S20, Volume 30, No. 1, 2010). In short, the inocula were adjusted to deliver about 10^4 colony forming units (CFU) per spot with a multipoint inoculator (Applied Quality Services, UK). The plates were pored with doubling concentration range of the test combinations according to invention containing MHA. The plates were inoculated and were incubated at 35° C. for 18 hours.

E. coli S 16 = assay: MIC on Muller Hinton Agar (CLSI); conditions: for MIC: enzymes CMY type, TEM, DHA
Method: as §1

E. coli S 30 = assay: MIC on Muller Hinton Agar (CLSI); conditions: for MIC: enzymes CMY type, TEM
Method: as §1

E. coli S 330 = assay: MIC on Muller Hinton Agar (CLSI); conditions: for MIC: Escherichia coli, S330, agent alone, enzymes NDM, read-out: MIC
Method: as §1

E. coli S 33 = assay: MIC on Muller Hinton Agar (CLSI); conditions: for MIC: enzymes TEM
Method: as §1

E. coli S 35 = assay: MIC on Muller Hinton Agar (CLSI); conditions: for MIC: enzymes TEM
Method: as §1

K. pneumoniae B 77 = assay: MIC on Muller Hinton Agar (CLSI); conditions: for MIC: enzymes SHV, TEM
Method: as §1

K. pneumoniae B 88 = assay: MIC on Muller Hinton Agar (CLSI); conditions: for MIC: enzymes SHV, TEM
Method: as §1

K. pneumoniae M 3 = assay: MIC on Muller Hinton Agar (CLSI); conditions: for MIC: enzymes SHV, CTXM, TEM
Method: as §1

K. pneumoniae NCTC 13439 = assay: MIC on Muller Hinton Agar (CLSI); conditions: for MIC: Klebsiella pneumoniae, NCTC13439, agent alone, enzymes VIM-1, read-out: MIC
Method: as §1

K. pneumoniae S 48 = assay: MIC on Muller Hinton Agar (CLSI); conditions: for MIC: enzymes SHV, TEM
Method: as §1

K. pneumoniae S 50 = assay: MIC on Muller Hinton Agar (CLSI); conditions: for MIC: enzymes SHV, TEM
Method: as §1

[1] = system: P. aeruginosa H 113720186; assay: MIC on Muller Hinton Agar (CLSI); conditions: for MIC: enzymes IMP
Method: as §1

P. aeruginosa Q-111 = assay: MIC on Muller Hinton Agar (CLSI)
Method: as §1

P. aeruginosa S 504 = assay: MIC on Muller Hinton Agar (CLSI)
Method: as §1

P. aeruginosa S 508 = assay: MIC on Muller Hinton Agar (CLSI)
Method: as §1

P. aeruginosa S 513 = assay: MIC on Muller Hinton Agar (CLSI)
Method: as §1

[2] = system: clinical isolate of K. pneumoniae B 88 producing metallo beta-lactamases [SHV, TEM, NDM-1]; assay: Time kill study; conditions: for Bacterial count: each agent at 8 mcg/ml, initial count 6.18 log CFU/ml; for Change in bacterial count (in words): used alone at 8 mcg/ml, at the end of 6 hours
Method: (§2) Typically, freshly grown cultures were diluted to the required cell density (initial starting inoculum) in Cation adjusted Muller Hinton broth medium BD, USA). The antibacterial agents at the required concentrations were added into the culture-containing medium either alone or in combination. The samples were incubated under shaking condition (120 rpm) at 37° C. Enumeration of viable bacterial count was undertaken, every 2 hour, by diluting in normal saline and plating on to the Tryptic Soya Agar plates (BD, USA). The plates were incubated for 24 hours to arrive at the viable bacterial count. […] The decrease of 1 Log CFU/ml, after administration of combination of present invention, in comparison to initial bacterial count corresponds to 90% killing of bacteria. Similarly, 2 Log CFU/ml reductions corresponds to 99% killing of bacteria and 3 Log CFU/ml reductions is equal to 99.9% killing of bacteria.

[3] = system: clinical isolate of K. pneumoniae S 48 producing metallo beta-lactamases [SHV, TEM, NDM-1]; assay: Time kill study; conditions: for Bacterial count: each agent at 8 mcg/ml, initial count 6.84 log CFU/ml
Method: as §2

[4] = system: highly resistant strains of E. coli, K. pneumonia and P. aeruginosa; assay: MIC, summary over the strain panel; conditions: for MICs (range over the strains): agent alone
Method: as §1

[5] = Escherichia coli, M44, agent alone, NDM-1, read-out: MIC
[6] = Escherichia coli, S16, agent alone, read-out: MIC
[7] = Escherichia coli, S30, agent alone, NDM-1, read-out: MIC
[8] = Escherichia coli, S33, agent alone, NDM-1, read-out: MIC
[9] = Escherichia coli, S35, agent alone, NDM-1, read-out: MIC
[10] = Klebsiella pneumoniae, B77, agent alone, NDM-1, read-out: MIC
[11] = Klebsiella pneumoniae, B88, agent alone, NDM-1, read-out: MIC
[12] = Klebsiella pneumoniae, M3, agent alone, NDM-1, read-out: MIC
[13] = Klebsiella pneumoniae, S48, agent alone, NDM-1, read-out: MIC
[14] = Klebsiella pneumoniae, S50, agent alone, NDM-1, read-out: MIC
[15] = Pseudomonas aeruginosa, H113720186, agent alone, read-out: MIC
[16] = Pseudomonas aeruginosa, Q111, agent alone, enzymes OXA-4, OXA-11, read-out: MIC
[17] = Pseudomonas aeruginosa, S504, agent alone, enzymes VIM-6, read-out: MIC
[18] = Pseudomonas aeruginosa, S508, agent alone, enzymes VIM-11, read-out: MIC
[19] = Pseudomonas aeruginosa, S513, agent alone, enzymes VIM-6, read-out: MIC

| Molecule | MIC (E. coli M 44; [5]) [µg/mL] | MIC (E. coli S 16; [6]) [µg/mL] | MIC (E. coli S 30; [7]) [µg/mL] | MIC (E. coli S 330) [µg/mL] | MIC (E. coli S 33; [8]) [µg/mL] | MIC (E. coli S 35; [9]) [µg/mL] | MIC (K. pneumoniae B 77; [10]) [µg/mL] | MIC (K. pneumoniae B 88; [11]) [µg/mL] | MIC (K. pneumoniae M 3; [12]) [µg/mL] | MIC (K. pneumoniae NCTC 13439) [µg/mL] | MIC (K. pneumoniae S 48; [13]) [µg/mL] | MIC (K. pneumoniae S 50; [14]) [µg/mL] | MIC [1, 15] [µg/mL] | MIC (P. aeruginosa Q-111; [16]) [µg/mL] | MIC (P. aeruginosa S 504; [17]) [µg/mL] | MIC (P. aeruginosa S 508; [18]) [µg/mL] | MIC (P. aeruginosa S 513; [19]) [µg/mL] | Bacterial count ([2]; 2 hours) [Log CFU/ml] | Bacterial count ([2]; 4 hours) [Log CFU/ml] | Bacterial count ([2]; 6 hours) [Log CFU/ml] | also measured |
| --- | --- | --- | --- | --- | --- | --- | --- | --- | --- | --- | --- | --- | --- | --- | --- | --- | --- | --- | --- | --- | --- |
| NCC[C@H](O)C(=O)N[C@@H]1C[C@H](N)[C@@H](O[C@H]2O[C@H](CN)[C@@H](O)[C@H](O)[C@H]2O)[C@H](O)[C@H]1O[C@H]1O[C@H](CO)[C@@H](O)[C@H](N)[C@H]1O [Amikacin, amikacin] | > 64 | > 64 | > 64 | > 64 | > 64 | > 64 | > 64 | > 64 | 4 | > 64 | > 64 | > 64 | > 32 | 16 | > 32 | > 32 | > 32 |  |  |  |  |
| O=C(NNC(=O)[C@@H]1CC[C@@H]2CN1C(=O)N2OS(=O)(=O)O)[C@@H]1CCCNC1 [Compound of Formula (I), (2S,5R)-sulphuric acid mono-[2-(N′—[(R)-piperidin-3-carbonyl]-hydrazinocarbonyl)-7-oxo-1,6-diaza-bicyclo[3.2.1]oct-6-yl] ester] | 0.12 | 0.25 | 0.25 | 0.12 | 0.25 | 0.25 | > 32 | > 32 | 0.5 | > 32 | 0.5 | 0.5 | 8 | 4 | 8 | 8 | 8 | 6.4 | 6.08 | 6.28 | Change in bacterial count (in words) [2]: no decrease in bacterial count was observed; Bacterial count ([3]; 2 hours): 7.27 Log CFU/ml; Bacterial count ([3]; 4 hours): 7.04 Log CFU/ml; Bacterial count ([3]; 6 hours): 7.45 Log CFU/ml; Change in bacterial count (in words) ([3]; used alone at 8 mcg/ml, at the end of 6 hours): no decrease in bacterial count was observed; MICs (range over the strains) ([4]; most strains of E. coli and K. pneumoniae): 0.1 to 0.5 µg/mL |
| C[C@@H](O)[C@H]1C(=O)N2C(C(=O)O)=C(SCCN=CN)C[C@H]12 [Imipenem, imipenem] |  |  |  |  |  |  |  |  |  |  |  |  |  |  |  |  |  |  |  |  | Bacterial count ([3]; 2 hours): 7.38 Log CFU/ml; Bacterial count ([3]; 4 hours): 8.32 Log CFU/ml; Bacterial count ([3]; 6 hours): 8.81 Log CFU/ml |
| C[C@@H](O)[C@H]1C(=O)N2C(C(=O)O)=C(S[C@@H]3CN[C@H](C(=O)N(C)C)C3)[C@H](C)[C@H]12 [Meropenem, meropenem] | 32 | > 32 | > 32 | > 32 | > 32 | > 32 | > 32 | > 32 | 16 | > 32 | 32 | > 32 | > 64 | 4 | > 32 | > 32 | > 32 | 6.02 | 6.3 | 7.6 | Change in bacterial count (in words) [2]: no decrease in bacterial count was observed |
| CC(C)(O/N=C(\C(=O)N[C@@H]1C(=O)N2C(C(=O)[O-])=C(C[n+]3ccccc3)CS[C@H]12)c1csc(N)n1)C(=O)O [ceftazidine, ceftazidime] |  |  |  |  |  |  |  |  |  |  |  |  |  |  |  |  |  |  |  |  | MIC (mcg/ml) of ceftazidine in presence of avibactam (4 mcg/ml) (E. coli M 44; with avibactam at 4 mcg/ml): >16 µg/mL; MIC (mcg/ml) of ceftazidine in presence of avibactam (4 mcg/ml) (E. coli S 16; with avibactam at 4 mcg/ml): >16 µg/mL; MIC (mcg/ml) of ceftazidine in presence of avibactam (4 mcg/ml) (E. coli S 30; with avibactam at 4 mcg/ml): >16 µg/mL; MIC (mcg/ml) of ceftazidine in presence of avibactam (4 mcg/ml) (E. coli S 330; with avibactam at 4 mcg/ml): >16 µg/mL; MIC (mcg/ml) of ceftazidine in presence of avibactam (4 mcg/ml) (E. coli S 33; with avibactam at 4 mcg/ml): >16 µg/mL; MIC (mcg/ml) of ceftazidine in presence of avibactam (4 mcg/ml) (E. coli S 35; with avibactam at 4 mcg/ml): >16 µg/mL; MIC (mcg/ml) of ceftazidine in presence of avibactam (4 mcg/ml) (K. pneumoniae B 77; with avibactam at 4 mcg/ml): >16 µg/mL; MIC (mcg/ml) of ceftazidine in presence of avibactam (4 mcg/ml) (K. pneumoniae B 88; with avibactam at 4 mcg/ml): >16 µg/mL; MIC (mcg/ml) of ceftazidine in presence of avibactam (4 mcg/ml) (K. pneumoniae M 3; with avibactam at 4 mcg/ml): >16 µg/mL; MIC (mcg/ml) of ceftazidine in presence of avibactam (4 mcg/ml) (K. pneumoniae NCTC 13439; with avibactam at 4 mcg/ml): >16 µg/mL; MIC (mcg/ml) of ceftazidine in presence of avibactam (4 mcg/ml) (K. pneumoniae S 48; with avibactam at 4 mcg/ml): >16 µg/mL; MIC (mcg/ml) of ceftazidine in presence of avibactam (4 mcg/ml) (K. pneumoniae S 50; with avibactam at 4 mcg/ml): >16 µg/mL; MIC (mcg/ml) of ceftazidine in presence of avibactam (4 mcg/ml) ([1]; with avibactam at 4 mcg/ml): >32 µg/mL; MIC (mcg/ml) of ceftazidine in presence of avibactam (4 mcg/ml) (P. aeruginosa Q-111; with avibactam at 4 mcg/ml): 32 µg/mL; MIC (mcg/ml) of ceftazidine in presence of avibactam (4 mcg/ml) (P. aeruginosa S 504; with avibactam at 4 mcg/ml): >16 µg/mL; MIC (mcg/ml) of ceftazidine in presence of avibactam (4 mcg/ml) (P. aeruginosa S 508; with avibactam at 4 mcg/ml): >16 µg/mL; MIC (mcg/ml) of ceftazidine in presence of avibactam (4 mcg/ml) (P. aeruginosa S 513; with avibactam at 4 mcg/ml): >16 µg/mL; MIC values of ceftazidime in presence of avibactam ([4]; with avibactam at 4 mcg/ml, in most of the cases): more than 16 mcg/ml |
| colistin |  |  |  |  |  |  |  |  |  |  |  |  |  |  |  |  |  |  |  |  | MIC (E. coli M 44; agent alone, NDM-1): 1 µg/mL; MIC (E. coli S 16; agent alone): 1 µg/mL; MIC (E. coli S 30; agent alone, NDM-1): 0.5 µg/mL; MIC (E. coli S 33; agent alone, NDM-1): 1 µg/mL; MIC (E. coli S 35; agent alone, NDM-1): 1 µg/mL; MIC (K. pneumoniae B 77; agent alone, NDM-1): 1 µg/mL; MIC (K. pneumoniae B 88; agent alone, NDM-1): 1 µg/mL; MIC (K. pneumoniae M 3; agent alone, NDM-1): 1 µg/mL; MIC (K. pneumoniae S 48; agent alone, NDM-1): 1 µg/mL; MIC (K. pneumoniae S 50; agent alone, NDM-1): 1 µg/mL; MIC ([1]; agent alone): 2 µg/mL; MIC (P. aeruginosa Q-111; agent alone, enzymes OXA-4, OXA-11): 2 µg/mL; MIC (P. aeruginosa S 504; agent alone, enzymes VIM-6): 2 µg/mL; MIC (P. aeruginosa S 508; agent alone, enzymes VIM-11): 2 µg/mL; MIC (P. aeruginosa S 513; agent alone, enzymes VIM-6): 2 µg/mL; MICs (range over the strains) ([4]; resistant strains of E. coli, K. pneumonia and P. aeruginosa): 0.5 to 2 µg/mL |
